Test results published in patent US5488035A (priority 1991, dated 1996).
Bridge positions count the residues as written; N and C are the ends. Peptide text beside a SMILES is read from it.

What was measured:
Format in all cases: cell-based
[1] = test system: AFL 001 (Aspergillus flavus); test: Minimum inhibitory concentration; conditions: for MIC AFL 001: MIC Comparisons
Procedure: Decreasing tested concentrations of tachyplesin were against the preceding four organisms plus Fusarium moniliforme and Sclerotinia sclerotiorum to determine the minimum inhibitory concentration, and this was compared with other antimicrobial compounds. Results were as follows:
The MICs of tachyplesin, defensin and hordothionin (μg/ml) were measured against FGR 008 and AFL 001 across a range of buffer pHs and ionic strengths to determine their suitability as plant antimicrobials under varying conditions.

[2] = test system: FMO 001 (Fusarium moniliforme); test: Minimum inhibitory concentration; conditions: MIC Comparisons
Text: (§1) Decreasing tested concentrations of tachyplesin were against the preceding four organisms plus Fusarium moniliforme and Sclerotinia sclerotiorum to determine the minimum inhibitory concentration, and this was compared with other antimicrobial compounds.

[3] = test system: SSC 002 (Sclerotinia sclerotiorum); test: Minimum inhibitory concentration; conditions: MIC Comparisons
Text: as §1

[4] = test system: FGR 008 (Fusarium graminearum)

Compound: CC[C@H](C)[C@@H]1NC(=O)CNC(=O)[C@H](CCCNC(=N)N)NC(=O)[C@H](Cc2ccc(O)cc2)NC(=O)[C@@H]2CSSC[C@H](NC1=O)C(=O)N[C@@H](Cc1ccc(O)cc1)C(=O)N[C@@H](CCCNC(=N)N)C(=O)N[C@@H](CCCNC(=N)N)C(=O)N[C@H](C(=O)N[C@@H](CCCNC(=N)N)C(=O)O)CSSC[C@H](NC(=O)[C@H](Cc1c[nH]c3ccccc13)NC(=O)[C@@H](N)CCCCN)C(=O)N[C@@H](Cc1ccccc1)C(=O)N[C@@H](CCCNC(=N)N)C(=O)N[C@@H](C(C)C)C(=O)N2 [tachyplesin] (H-KWCFRVCYRGICYRRCR-OH; disulfide 3-16, 7-12; N-terminus assumed)
- MIC AFL 001 ([1]; value before parentheses): 6.25 µg/mL
- MIC AFL 001 ([1]; value in parentheses): 2.8 µM
- Dependence of MIC on buffer pH, AFL 001 ([1]; buffer pHs of from 5.0 to 8.0): None of the antimicrobials showed a discernible trend or optimum
- MIC FMO 001 ([2]; value before parentheses): 6.25 µg/mL
- MIC FMO 001 ([2]; value in parentheses): 2.8 µM
- MIC SSC 002 ([3]; value before parentheses): 12.5 µg/mL
- MIC SSC 002 ([3]; value in parentheses): 5.6 µM
- Dependence of MIC on buffer pH, FGR 008 [4]: None of the antimicrobials showed a discernible trend or optimum

Compound: CMIII
- MIC AFL 001 ([1]; value before parentheses): 60 µg/mL
- MIC AFL 001 ([1]; value in parentheses): 15 µM
- MIC FMO 001 ([2]; value before parentheses): 18.2 µg/mL
- MIC FMO 001 ([2]; value in parentheses): 4.6 µM
- MIC SSC 002 ([3]; value before parentheses): 24 µg/mL
- MIC SSC 002 ([3]; value in parentheses): 6 µM
